From paper PMC7531004, “Discovery of gramicidin A analogues with altered activities by multidimensional screening of a one-bead-one-compound library” (Nature Communications, 2020) come the findings set out here.

The nature of series [1]: H+/Na+ transport assay of bead-derived peptides (one-point).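 Also: relative to parent gramicidin A activity set to 1.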 The series is classed as biochemical. Also noted: key: relative activity; mean of two control wells = 1.00. The following applies: bead-derived peptide solution, EYPC/EYPG LUVs. The essentials: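 H+/Na+ transport is monitored through pyranine fluorescence in freshly extruded LUVs after a 30-min room-temperature vortex with each library peptide at a single concentration. Signals are normalized to detergent (Triton X-100) and untreated controls.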

The test system of series [2] is P388 mouse leukemia cells. Particulars: 92 h. The essentials: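 Peptide stocks diluted 250× in growth medium; P388 cells 1 × 10^4 cells/mL final; 37 °C, 5% CO2, 92 h. WST-1 + 1-methoxy PMS, 4 h, A415. Output: % viability.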
The test system of series [3] is Streptococcus pyogenes SSI-9. Nature of the series: Antibacterial activity assay of bead-derived peptides (three concentrations). The series is classed as cell-based. Details: key: +++: inhibition by the 640-fold diluted peptide solution; ++: inhibition by the 160-fold diluted solution; +: inhibition by the 40-fold diluted solution; -: no inhibition. The following applies: S. pyogenes, bead-derived peptide solution, three concentrations. The essentials:
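Growth inhibition scored visually as precipitated bacteria after 37 °C, 18 h incubation. Streptococcus pyogenes SSI-9 inoculum of 2 × 10^5 CFU in Ca2+/Mg2+-adjusted Mueller Hinton broth plus 5% laked horse blood; peptides tested at three levels: stock, 4-fold and 16-fold DMSO dilutions.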

Structures are written as SMILES. Where a SMILES comes first, the peptide text is derived from it. [ ]: non-standard residue; d: D form. The star is where a group is joined. NHCH2CH2OH = OCCN*; For = O=C*

As for `CC(C)C[C@@H](NC(=O)[C@H](C)NC(=O)[C@H](NC(=O)[C@H](C)NC(=O)CNC(=O)[C@@H](NC=O)C(C)C)C(C)C)C(=O)N[C@H](C(=O)N[C@H](CC(C)C)C(=O)N[C@@H](Cc1c[nH]c2ccccc12)C(=O)N[C@@H](C(=O)N[C@@H](Cc1c[nH]c2ccccc12)C(=O)N[C@H](CC(C)C)C(=O)N[C@@H](Cc1c[nH]c2ccccc12)C(=O)N[C@H](CC(C)C)C(=O)N[C@@H](Cc1c[nH]c2ccccc12)C(=O)NCCO)C(C)C)C(C)C` [compound 11439] (For-VGA[dV]A[dL]V[dL]W[dV]W[dL]W[dL]W-NHCH2CH2OH), the “H+/Na+ transport activity normalized against the value of 1 (1.00)” value (“H+/Na+ transport activity normalized” for short) in series [1] is on record as 1.18. The compound further gave a cell viability/% in series [2] of 8.1%. Further, in series [3], the antibacterial activity entry is “-”.

Consider `CC(C)C[C@@H](NC(=O)[C@H](C)NC(=O)[C@H](NC(=O)[C@H](C)NC(=O)CNC(=O)[C@@H](NC=O)C(C)C)C(C)C)C(=O)N[C@H](C(=O)N[C@@H](C(=O)N[C@@H](Cc1c[nH]c2ccccc12)C(=O)N[C@@H](C(=O)N[C@@H](Cc1c[nH]c2ccccc12)C(=O)N[C@H](CC(C)C)C(=O)N[C@@H](Cc1c[nH]c2ccccc12)C(=O)N[C@H](CC(C)C)C(=O)N[C@@H](Cc1c[nH]c2ccccc12)C(=O)NCCO)C(C)C)[C@H](C)O)C(C)C` [compound 10367] (For-VGA[dV]A[dL]V[dT]W[dV]W[dL]W[dL]W-NHCH2CH2OH), for which the “H+/Na+ transport activity normalized” value in series [1] is on record as 1.00. For the same compound, in series [2], the cell viability/% is given as 100.0%. The antibacterial activity result in series [3] is listed as “-”.

Regarding `CC(C)C[C@@H](NC(=O)[C@H](Cc1c[nH]c2ccccc12)NC(=O)[C@@H](CC(C)C)NC(=O)[C@H](Cc1c[nH]c2ccccc12)NC(=O)[C@H](NC(=O)[C@H](Cc1c[nH]c2ccccc12)NC(=O)[C@H](NC(=O)[C@@H](NC(=O)[C@H](NC(=O)[C@H](C)NC(=O)[C@H](NC(=O)[C@H](C)NC(=O)CNC(=O)[C@@H](NC=O)C(C)C)C(C)C)C(C)C)C(C)C)C(C)C)C(C)C)C(=O)N[C@@H](Cc1c[nH]c2ccccc12)C(=O)NCCO` [compound 10649] (For-VGA[dV]A[dV]V[dV]W[dV]W[dL]W[dL]W-NHCH2CH2OH), the “H+/Na+ transport activity normalized” value in series [1] worked out at 1.19. Besides, the cell viability/% in series [2] is reported as 100.0%. Moreover, the antibacterial activity result in series [3] is given as “++”.

On to `CC(C)C[C@@H](NC(=O)[C@H](C)NC(=O)CNC(=O)[C@@H](NC=O)C(C)C)C(=O)N[C@@H](C)C(=O)N[C@@H](C(=O)N[C@H](C(=O)N[C@@H](C(=O)N[C@@H](Cc1c[nH]c2ccccc12)C(=O)N[C@H](CC(C)C)C(=O)N[C@@H](Cc1c[nH]c2ccccc12)C(=O)N[C@H](CC(C)C)C(=O)N[C@@H](Cc1c[nH]c2ccccc12)C(=O)N[C@H](CC(C)C)C(=O)N[C@@H](Cc1c[nH]c2ccccc12)C(=O)NCCO)C(C)C)C(C)C)C(C)C` [compound 9000] (For-VGA[dL]A[dV]V[dV]W[dL]W[dL]W[dL]W-NHCH2CH2OH), for which, in series [1], the “H+/Na+ transport activity normalized” value is 1.21. The cell viability/% in series [2] turned out to be 7.4%. The antibacterial activity result in series [3] was “+”.

Consider `CNC(=O)C[C@@H](NC(=O)[C@H](Cc1c[nH]c2ccccc12)NC(=O)[C@H](NC(=O)[C@H](Cc1c[nH]c2ccccc12)NC(=O)[C@@H](CC(C)C)NC(=O)[C@H](Cc1c[nH]c2ccccc12)NC(=O)[C@@H](CC(C)C)NC(=O)[C@@H](NC(=O)[C@@H](CC(C)C)NC(=O)[C@H](C)NC(=O)[C@@H](CC(C)C)NC(=O)[C@H](C)NC(=O)CNC(=O)[C@@H](NC=O)C(C)C)C(C)C)C(C)C)C(=O)N[C@@H](Cc1c[nH]c2ccccc12)C(=O)NCCO` [compound 3911] (For-VGA[dL]A[dL]V[dL]W[dL]W[dV]W[dD](NHMe)W-NHCH2CH2OH), for which, in series [1], the “H+/Na+ transport activity normalized” value worked out at 1.00. In series [2], this compound gave a cell viability/% of 100.0%. Besides, in series [3], the antibacterial activity result was “-”.

For the compound `CNC(=O)C[C@@H](NC(=O)[C@@H](NC(=O)[C@@H](CC(C)C)NC(=O)[C@H](C)NC(=O)[C@H](NC(=O)[C@H](C)NC(=O)CNC(=O)[C@@H](NC=O)C(C)C)C(C)C)C(C)C)C(=O)N[C@@H](Cc1c[nH]c2ccccc12)C(=O)N[C@H](CC(C)C)C(=O)N[C@@H](Cc1c[nH]c2ccccc12)C(=O)N[C@@H](C(=O)N[C@@H](Cc1c[nH]c2ccccc12)C(=O)N[C@@H](C(=O)N[C@@H](Cc1c[nH]c2ccccc12)C(=O)NCCO)C(C)C)C(C)C` [compound 6822] (For-VGA[dV]A[dL]V[dD](NHMe)W[dL]W[dV]W[dV]W-NHCH2CH2OH), the “H+/Na+ transport activity normalized” value in series [1] worked out at 1.23. Also, the cell viability/% in series [2] stood at 100.0%. The antibacterial activity entry in series [3] is given as “-”.

Turning to `CC(C)C[C@@H](NC(=O)[C@H](Cc1c[nH]c2ccccc12)NC(=O)[C@H](NC(=O)[C@H](Cc1c[nH]c2ccccc12)NC(=O)[C@H](NC(=O)[C@H](Cc1c[nH]c2ccccc12)NC(=O)[C@@H](CC(C)C)NC(=O)[C@@H](NC(=O)[C@H](NC(=O)[C@H](C)NC(=O)[C@H](NC(=O)[C@H](C)NC(=O)CNC(=O)[C@@H](NC=O)C(C)C)C(C)C)C(C)C)C(C)C)C(C)C)C(C)C)C(=O)N[C@@H](Cc1c[nH]c2ccccc12)C(=O)NCCO` [compound 12721] (For-VGA[dV]A[dV]V[dL]W[dV]W[dV]W[dL]W-NHCH2CH2OH), in series [1], the “H+/Na+ transport activity normalized” value came out at 1.04. For the same compound, the cell viability/% in series [2] came out at 51.7%. Further, in series [3], the antibacterial activity entry is given as “+”.

Consider `CC(C)C[C@@H](NC(=O)[C@H](Cc1c[nH]c2ccccc12)NC(=O)[C@@H](CC(C)C)NC(=O)[C@H](Cc1c[nH]c2ccccc12)NC(=O)[C@@H](CC(C)C)NC(=O)[C@H](Cc1c[nH]c2ccccc12)NC(=O)[C@H](NC(=O)[C@@H](NC(=O)[C@H](NC(=O)[C@H](C)NC(=O)[C@H](NC(=O)[C@H](C)NC(=O)CNC(=O)[C@@H](NC=O)C(C)C)C(C)C)C(C)C)C(C)C)C(C)C)C(=O)N[C@@H](Cc1c[nH]c2ccccc12)C(=O)NCCO` [compound 662] (For-VGA[dV]A[dV]V[dV]W[dL]W[dL]W[dL]W-NHCH2CH2OH), for which the “H+/Na+ transport activity normalized” value in series [1] worked out at 1.04. Moreover, the cell viability/% in series [2] amounted to 1.5%. Besides, the antibacterial activity result in series [3] was “+++”.

For the compound `CC(C)C[C@@H](NC(=O)[C@H](C)NC(=O)CNC(=O)[C@@H](NC=O)C(C)C)C(=O)N[C@@H](C)C(=O)N[C@H](CC(C)C)C(=O)N[C@H](C(=O)N[C@H](CC(C)C)C(=O)N[C@@H](Cc1c[nH]c2ccccc12)C(=O)N[C@@H](C(=O)N[C@@H](Cc1c[nH]c2ccccc12)C(=O)N[C@@H](C(=O)N[C@@H](Cc1c[nH]c2ccccc12)C(=O)N[C@@H](C(=O)N[C@@H](Cc1c[nH]c2ccccc12)C(=O)NCCO)C(C)C)C(C)C)[C@H](C)O)C(C)C` [compound 5679] (For-VGA[dL]A[dL]V[dL]W[dT]W[dV]W[dV]W-NHCH2CH2OH), the “H+/Na+ transport activity normalized” value in series [1] is given as 1.06. The cell viability/% in series [2] is recorded as 90.5%. Further, the antibacterial activity result in series [3] is given as “-”.

As to `CC(C)C[C@@H](NC(=O)[C@H](Cc1c[nH]c2ccccc12)NC(=O)[C@H](NC(=O)[C@H](Cc1c[nH]c2ccccc12)NC(=O)[C@@H](CC(C)C)NC(=O)[C@@H](NC(=O)[C@H](NC(=O)[C@H](C)NC(=O)[C@H](NC(=O)[C@H](C)NC(=O)CNC(=O)[C@@H](NC=O)C(C)C)[C@H](C)O)C(C)C)C(C)C)C(C)C)C(=O)N[C@@H](Cc1c[nH]c2ccccc12)C(=O)N[C@@H](C(=O)N[C@@H](Cc1c[nH]c2ccccc12)C(=O)NCCO)C(C)C` [compound 6116] (For-VGA[dT]A[dV]V[dL]W[dV]W[dL]W[dV]W-NHCH2CH2OH), the “H+/Na+ transport activity normalized” value in series [1] is reported as 1.13. Moreover, the cell viability/% in series [2] is recorded as 93.5%. In addition, the antibacterial activity result in series [3] is listed as “-”.

Regarding `CC(C)C[C@@H](NC(=O)[C@H](C)NC(=O)CNC(=O)[C@@H](NC=O)C(C)C)C(=O)N[C@@H](C)C(=O)N[C@@H](C(=O)N[C@H](C(=O)N[C@@H](C(=O)N[C@@H](Cc1c[nH]c2ccccc12)C(=O)N[C@@H](C(=O)N[C@@H](Cc1c[nH]c2ccccc12)C(=O)N[C@@H](C(=O)N[C@@H](Cc1c[nH]c2ccccc12)C(=O)N[C@@H](C(=O)N[C@@H](Cc1c[nH]c2ccccc12)C(=O)NCCO)C(C)C)C(C)C)C(C)C)[C@H](C)O)C(C)C)C(C)C` [compound 12429] (For-VGA[dL]A[dV]V[dT]W[dV]W[dV]W[dV]W-NHCH2CH2OH), the “H+/Na+ transport activity normalized” value in series [1] is reported as 1.03. The same compound yielded a cell viability/% in series [2] of 100.0%. Besides, the antibacterial activity entry in series [3] was “-”.

Take `CC(C)C[C@@H](NC(=O)[C@H](C)NC(=O)CNC(=O)[C@@H](NC=O)C(C)C)C(=O)N[C@@H](C)C(=O)N[C@H](CC(C)C)C(=O)N[C@H](C(=O)N[C@H](CC(C)C)C(=O)N[C@@H](Cc1c[nH]c2ccccc12)C(=O)N[C@@H](C(=O)N[C@@H](Cc1c[nH]c2ccccc12)C(=O)N[C@@H](C(=O)N[C@@H](Cc1c[nH]c2ccccc12)C(=O)N[C@@H](C(=O)N[C@@H](Cc1c[nH]c2ccccc12)C(=O)NCCO)C(C)C)C(C)C)[C@H](C)O)C(C)C` [compound 5996] (For-VGA[dL]A[dL]V[dL]W[dT]W[dV]W[dV]W-NHCH2CH2OH): the “H+/Na+ transport activity normalized” value in series [1] turned out to be 1.08. Also, the cell viability/% in series [2] is listed as 78.7%. For the same compound, in series [3], the antibacterial activity result is “-”.
